From patent US12194049B2, “Composition for treating carbapenem antibiotic-resistant Acinetobacter baumannii infection” (priority 2019, dated 2025)

Tests used:
[1] = test system: CR-Ab pneumonia model mice; assay: Protective effect in CR-Ab pneumonia model mice (7-day survival); type: in vivo, Male C57BL/6 mice; conditions: intraperitoneal, once a day, after 7 days
[2] = test system: clinically isolated Acinetobacter baumannii; conditions: found in 2017; cited from earlier work
[3] = test system: carbapenem antibiotic-resistant Acinetobacter baumannii CR-Ab (157 clinically isolated strains); assay: microbe, parasite or virus in culture; conditions: read-out: Cumulative microbial inhibition rates (%) against CR-Ab
Excerpt: Strains: 157 clinically isolated strains of carbapenem antibiotic-resistant Acinetobacter baumannii were selected and named as CR-Ab.
Drugs: Sulbactam and ceftazidime were taken and prepared into compositions of different ratios. The method was fixing the amount of sulbactam and gradually reducing the amount of ceftazidime to obtain compositions of sulbactam and ceftazidime at weight ratios of 1:1, 1:0.9, 1:0.8, 1:0.6, 1:0.4, 1:0.2 and 1:0.1, respectively. A sulbactam-only preparation was additionally used as a control.
The cumulative microbial inhibition rate was used to evaluate the microbial inhibition effects of the drugs, respectively. The cumulative microbial inhibition rate was defined as the microbial inhibition rate of a drug at a certain concentration plus all the microbial inhibition rates below that concentration.

C[C@@H](O)[C@H]1C(=O)N2C(C(=O)O)=C(S[C@@H]3CN[C@H](C(=O)N(C)C)C3)[C@H](C)[C@H]12 [Meropenem, meropenem]
Survival of CR-Ab pneumonia model mice ([1]; High dose (30 mg/kg)): 3/15
Survival of CR-Ab pneumonia model mice ([1]; Low dose (10 mg/kg)): 2/15
resistance rate [2]: up to 69.3%

CC1(C)[C@H](C(=O)O)N2C(=O)C[C@H]2S1(=O)=O [Single sulbactam, (2S,5R)-3,3-dimethyl-7-oxo-4-thia-1-azabicyclo[3.2.0]heptane-2-carboxylate-4,4-dioxide]
inhibition at 0.125 µg/mL [3]: 0%
inhibition at 0.25 µg/mL [3]: 0%
inhibition at 0.5 µg/mL [3]: 0%
inhibition at 1 µg/mL [3]: 7%
inhibition at 2 µg/mL [3]: 17%
inhibition at 4 µg/mL [3]: 32%
inhibition at 8 µg/mL [3]: 48%
inhibition at 16 µg/mL [3]: 64%
inhibition at 32 µg/mL [3]: 84%
inhibition at 64 µg/mL [3]: 94%
inhibition at 128 µg/mL [3]: 100%
inhibition at 256 µg/mL [3]: 100%
inhibition at 512 µg/mL [3]: 100%

CC(C)(O/N=C(\C(=O)N[C@@H]1C(=O)N2C(C(=O)[O-])=C(C[n+]3ccccc3)CS[C@H]12)c1csc(N)n1)C(=O)O [ceftazidime, (6R,7R)-7-[[(2Z)-2-(2-Aminothiazol-4-yl)-2-[(1-carboxy-1-methylethoxy)imino]acetyl]amino]-8-oxo-3-[(1-pyridinio)methyl]-5-thia-1-azabicyclo[4.2.0]oct-2-ene-2-carboxylate]
resistance rate [2]: up to 72%
